In the supplement of paper PMC8671470:

How the values were obtained:
Details in all cases: 72 h
BV-173 [1] = test system: BV-173
Method in brief: (§1)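 Dose–response data were fitted with a four-parameter log-logistic model. They came from fifteen myeloid leukaemia lines treated in duplicate with five tenfold doses from 1 to 10,000 nM for 72 h at 37 °C with 5% CO2, with ATP viability normalised to vehicle and to a positive control at 10 µM. The IC50 was derived from these fits.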

HEL [2] = test system: HEL
Method in brief: as §1

HL-60 [3] = test system: HL-60
Method in brief: as §1

K-562 [4] = test system: K-562
Method in brief: as §1

KCL-22 [5] = test system: KCL-22
Method in brief: as §1

KG-1 [6] = test system: KG-1
Method in brief: as §1

KU-812 [7] = test system: KU-812
Method in brief: as §1

LAMA-84 [8] = test system: LAMA-84
Method in brief: as §1

ML-2 [9] = test system: ML-2
Method in brief: as §1

MOLM-13 [10] = test system: MOLM-13
Method in brief: as §1

MV4-11 [11] = test system: MV4-11
Method in brief: as §1

Mono-Mac-6 [12] = test system: Mono-Mac-6
Method in brief: as §1

NOMO-1 [13] = test system: NOMO-1
Method in brief: as §1

SHI-1 [14] = test system: SHI-1
Method in brief: as §1

THP-1 [15] = test system: THP-1
Method in brief: as §1

BV-173 [16] = test: cell viability (% survival relative to DMSO control, bortezomib = 0%); higher = less cytotoxic
Method in brief: (§2)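 Seeding density for each of the 10 AML and 5 CML cell lines was titrated to the linear growth range. Cells went into 384-well plates pre-printed in duplicate with compounds at 1, 10, 100, 1000 or 10000 nM and were held for 72 h at 37 °C with 5% CO2. CellTiter-Glo luminescence then provided the readout. Percent survival is expressed relative to vehicle at 100% and a 10 µM positive control at 0%, averaged over duplicates.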

HEL [17] = test: as above
Method in brief: as §2

HL-60 [18] = test: as above
Method in brief: as §2

K-562 [19] = test: as above
Method in brief: as §2

KCL-22 [20] = test: as above
Method in brief: as §2

KG-1 [21] = test: as above
Method in brief: as §2

KU-812 [22] = test: as above
Method in brief: as §2

LAMA-84 [23] = test: as above
Method in brief: as §2

ML-2 [24] = test: as above
Method in brief: as §2

MOLM-13 [25] = test: as above
Method in brief: as §2

MV4-11 [26] = test: as above
Method in brief: as §2

Mono-Mac-6 [27] = test: as above
Method in brief: as §2

NOMO-1 [28] = test: as above
Method in brief: as §2

SHI-1 [29] = test: as above
Method in brief: as §2

THP-1 [30] = test: as above
Method in brief: as §2

Cc1nc(-c2ccccc2)sc1C(=O)Nc1ccc(S(N)(=O)=O)cc1
Details	IC50 (cell viability) [µM]
BV-173 [1]	> 10
HEL [2]	> 10
HL-60 [3]	> 10
K-562 [4]	> 10
KCL-22 [5]	> 10
KG-1 [6]	> 10
KU-812 [7]	> 10
LAMA-84 [8]	> 10
ML-2 [9]	> 10
MOLM-13 [10]	> 10
MV4-11 [11]	> 10
Mono-Mac-6 [12]	> 10
NOMO-1 [13]	> 10
SHI-1 [14]	> 10
THP-1 [15]	> 10

cell viability [%]
Details	1 nM	10 nM	100 nM	1000 nM	10000 nM
BV-173 [16]	115	103	85.1	97.8	109
HEL [17]	110	112	106	89.3	105
HL-60 [18]	109	85	117	103	97.2
K-562 [19]	103	109	105	114	109
KCL-22 [20]	98.7	99.1	105	79.8	102
KG-1 [21]	118	104	98.5	93.3	102
KU-812 [22]	108	102	96.4	91	104
LAMA-84 [23]	107	99.9	102	96.2	111
ML-2 [24]	111	104	99.8	107	100
MOLM-13 [25]	102	112	127	106	99.7
MV4-11 [26]	106	112	105	105	93.8
Mono-Mac-6 [27]	121	102	98.7	97.3	108
NOMO-1 [28]	113	98.2	96.6	101	99.6
SHI-1 [29]	109	106	104	103	111
THP-1 [30]	107	103	97	94.7	97.7

O=C([O-])CC(O)(C(=O)[O-])C(O)C(=O)[O-].[K+].[K+].[K+] (stereo not given) [Hydroxycitrate]
Details	IC50 (cell viability) [µM]
BV-173 [1]	> 10
HEL [2]	> 10
HL-60 [3]	> 10
K-562 [4]	> 10
KCL-22 [5]	> 10
KG-1 [6]	> 10
KU-812 [7]	> 10
LAMA-84 [8]	> 10
ML-2 [9]	> 10
MOLM-13 [10]	> 10
MV4-11 [11]	> 10
Mono-Mac-6 [12]	> 10
NOMO-1 [13]	> 10
SHI-1 [14]	> 10
THP-1 [15]	> 10

cell viability [%]
Details	1 nM	10 nM	100 nM	1000 nM	10000 nM
BV-173 [16]	80.2	95.7	89.1	104	105
HEL [17]	79.6	98.2	112	95.1	99.6
HL-60 [18]	55.8	96.6	92.9	75.4	103
K-562 [19]	81.6	98.8	102	110	108
KCL-22 [20]	86.5	109	104	84.7	88
KG-1 [21]	80	94.5	93.6	102	91.5
KU-812 [22]	94.4	98.4	105	97.3	92.4
LAMA-84 [23]	93	95.9	115	93.8	96.4
ML-2 [24]	90.3	95.8	78.1	104	97
MOLM-13 [25]	68.9	104	99.4	89.5	92.5
MV4-11 [26]	81.4	107	111	106	90.2
Mono-Mac-6 [27]	87.8	86.8	98	90.6	99.5
NOMO-1 [28]	83.1	101	99.1	95.8	102
SHI-1 [29]	80.8	112	92	100	88.6
THP-1 [30]	83.8	93.4	97.5	97.7	105
